In ChEMBL document CHEMBL1132223, “Quantitative structure-activity relationship of human neutrophil collagenase (MMP-8) inhibitors using comparative molecular field analysis and X-ray structure analysis” (J Med Chem, 1999):

molecular target: Neutrophil collagenase (Homo sapiens, UniProt P22894); test: Inhibition of human neutrophil collagenase [Matrix Metalloprotease-8, MMP-8]
Sequence (P22894 whole entry): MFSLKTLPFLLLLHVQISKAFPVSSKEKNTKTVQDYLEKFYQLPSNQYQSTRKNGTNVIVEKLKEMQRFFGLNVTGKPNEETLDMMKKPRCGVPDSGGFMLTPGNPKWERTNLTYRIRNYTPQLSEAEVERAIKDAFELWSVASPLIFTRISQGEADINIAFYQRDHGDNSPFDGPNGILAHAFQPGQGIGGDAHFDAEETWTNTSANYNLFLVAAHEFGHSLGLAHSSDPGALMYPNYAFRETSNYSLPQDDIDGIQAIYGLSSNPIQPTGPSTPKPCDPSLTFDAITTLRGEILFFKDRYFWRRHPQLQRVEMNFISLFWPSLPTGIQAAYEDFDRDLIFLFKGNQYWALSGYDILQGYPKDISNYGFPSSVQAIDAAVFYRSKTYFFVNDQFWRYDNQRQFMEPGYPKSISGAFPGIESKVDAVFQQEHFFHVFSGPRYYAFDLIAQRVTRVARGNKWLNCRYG

Row | IC50 [nM] | Structure (SMILES)
1 | 10 | COc1ccc(S(=O)(=O)N2Cc3cc(NC(=O)[C@H](CC(=O)OC(C)(C)C)NC(=O)OCc4ccccc4)ccc3C[C@H]2C(=O)NO)cc1
2 | 40 | CNC(=O)c1ccc(Oc2ccc(S(=O)(=O)N3Cc4ccccc4C[C@@H]3C(=O)C(=O)O)cc2)cc1
3 | 3000 | O=C(NO)[C@H]1Cc2ccccc2CN1S(=O)(=O)Cc1ccccc1
4 | 1000 | COc1ccc(S(=O)(=O)N2Cc3ccccc3C[C@H]2C(=O)NO)cc1
5 | 600 | O=C(O)C(=O)[C@H]1Cc2ccccc2CN1S(=O)(=O)c1ccc(-c2ccon2)s1
6 | 10000 | COc1ccc(S(=O)(=O)N2Cc3ncn(C)c3C[C@@H]2C(=O)O)cc1
7 | 50 | O=C(NO)[C@H]1Cc2ccccc2CN1S(=O)(=O)c1ccc(C(F)(F)F)cc1
8 | 2 | O=C(NO)[C@H]1Cc2ccccc2CN1S(=O)(=O)c1ccc(-c2ccccc2)cc1
9 | 1 | COc1ccc(S(=O)(=O)N2Cc3cc(O)ccc3C[C@@H]2C(=O)NO)cc1
10 | 5 | O=C(O)C(=O)[C@H]1Cc2ccccc2CN1S(=O)(=O)c1ccc(-c2ccc(Cl)cc2)cc1
11 | 10 | CC(C)(C)OC(=O)Nc1ccc2c(c1)CN(S(=O)(=O)c1ccc(-c3ccc(F)cc3)cc1)[C@@H](C(=O)NO)C2
12 | 8 | O=C(NO)[C@H]1Cc2ccccc2CN1S(=O)(=O)c1ccc(-c2ccon2)s1
13 | 1000 | CSc1nccc(-c2ccc(S(=O)(=O)N3Cc4ccccc4C[C@@H]3C(=O)C(=O)O)s2)n1
14 | 30 | CCOC(=O)Nc1ccc(S(=O)(=O)N2Cc3ccccc3C[C@@H]2C(=O)NO)cc1
15 | 80 | O=C(O)C(=O)[C@H]1Cc2ccccc2CN1S(=O)(=O)c1ccc(-c2nc3ccccc3o2)cc1
16 | 3 | O=C(NO)[C@H]1Cc2ccccc2CN1S(=O)(=O)c1ccc(-c2ccc(Cl)cc2)cc1
17 | 30 | CN(C)c1ccc(Oc2ccc(S(=O)(=O)N3Cc4ccccc4C[C@@H]3C(=O)C(=O)O)cc2)cc1
18 | 1 | CN(C)c1ccc(-c2ccc(S(=O)(=O)N3Cc4ccccc4C[C@@H]3C(=O)C(=O)O)cc2)cc1
19 | 800 | O=C(NCc1csc(S(=O)(=O)N2Cc3ccccc3C[C@@H]2C(=O)NO)c1)c1ccccc1
20 | 40 | O=C(O)C(=O)[C@H]1Cc2ccc([N+](=O)[O-])cc2CN1S(=O)(=O)c1ccc(-c2ccc(F)cc2)cc1
21 | 200 | COc1ccc(OC(=O)Nc2cccc(S(=O)(=O)N3Cc4ccccc4C[C@@H]3C(=O)NO)c2)cc1
22 | 30 | O=C(NO)[C@H]1Cc2ccccc2CN1S(=O)(=O)CCc1ccncc1
23 | 20 | O=C(O)C(=O)[C@H]1Cc2ccccc2CN1S(=O)(=O)CCc1ccc(-c2ccccc2)cc1
24 | 10 | N#Cc1ccc(Oc2ccc(S(=O)(=O)N3Cc4ccccc4C[C@@H]3C(=O)C(=O)O)cc2)cc1
25 | 2 | COc1ccc(S(=O)(=O)N2Cc3cc(NC(=O)[C@H](C)NC(=O)OC(C)(C)C)ccc3C[C@H]2C(=O)NO)cc1
26 | 30 | CC(C)(C)OC(=O)Nc1ccc2c(c1)C[C@H](C(=O)C(=O)O)N(S(=O)(=O)c1ccc(-c3ccc(F)cc3)cc1)C2
27 | 8 | COc1ccc(S(=O)(=O)N2Cc3cc([N+](=O)[O-])ccc3C[C@@H]2C(=O)NO)cc1

Row | IC50 [nM] | Structure (SMILES)
28 | 100 | CC(=O)Nc1ccc(S(=O)(=O)N2Cc3ccccc3C[C@@H]2C(=O)NO)cc1
29 | 60 | O=C(O)C(=O)[C@H]1Cc2ccccc2CN1S(=O)(=O)c1ccc(/C=C/c2ccccc2)cc1
30 | 90 | O=C(O)C(=O)[C@H]1Cc2ccccc2CN1S(=O)(=O)c1ccc(-n2nccn2)cc1
31 | 20 | O=C(O)C(=O)[C@H]1Cc2cc([N+](=O)[O-])ccc2CN1S(=O)(=O)c1ccc(-c2ccc(Cl)cc2)cc1
32 | 70 | O=C(NO)[C@H]1Cc2ccccc2CN1S(=O)(=O)c1ccc2ccccc2c1
33 | 20 | CSc1nccc(-c2ccc(S(=O)(=O)N3Cc4ccccc4C[C@@H]3C(=O)NO)s2)n1
34 | 500 | O=C(O)C(=O)[C@H]1Cc2ccccc2CN1S(=O)(=O)c1ccc2oc3ccccc3c2c1
35 | 2 | Nc1ccc2c(c1)CN(S(=O)(=O)c1ccc(-c3ccc(F)cc3)cc1)[C@@H](C(=O)NO)C2
36 | 2 | O=C(NO)[C@H]1Cc2ccccc2CN1S(=O)(=O)Cc1ccc(-c2ccccn2)s1
37 | 40 | COc1ccc(S(=O)(=O)N2Cc3cc(NC(=O)CCC(=O)O)ccc3C[C@@H]2C(=O)NO)cc1
38 | 2000 | COc1ccc(S(=O)(=O)N2Cc3cc(NC(=O)[C@H](C)N)ccc3C[C@H]2C(=O)C(=O)O)cc1
39 | 200 | O=C(Nc1cccc(S(=O)(=O)N2Cc3ccccc3C[C@@H]2C(=O)NO)c1)c1ccccc1O
40 | 80 | COC(=O)c1csc(S(=O)(=O)N2Cc3ccccc3C[C@@H]2C(=O)NO)c1OC
41 | 2 | CCCCOc1ccc(S(=O)(=O)N2Cc3ccccc3C[C@@H]2C(=O)NO)cc1
42 | 40 | O=C(NO)[C@H]1Cc2ccccc2CN1S(=O)(=O)c1ccc2[nH]c(-c3ccccc3)nc2c1
43 | 3000 | CCCCCCCCCCCCCCCCS(=O)(=O)N1Cc2ccccc2C[C@@H]1C(=O)NO
44 | 3 | COc1ccc(S(=O)(=O)N2Cc3ncn(C)c3C[C@@H]2C(=O)NO)cc1
45 | 7 | Nc1ccc2c(c1)CN(S(=O)(=O)c1ccc(-c3ccc(Cl)cc3)cc1)[C@@H](C(=O)C(=O)O)C2
46 | 2 | O=C(NO)[C@H]1Cc2ccccc2CN1S(=O)(=O)c1ccc(OCc2ccc(F)cc2)cc1
47 | 2 | CN(C)c1ccc(-c2ccc(S(=O)(=O)N3Cc4ccccc4C[C@@H]3C(=O)NO)cc2)cc1
48 | 500 | O=C(NO)[C@H]1Cc2ccccc2CN1S(=O)(=O)c1cc(Br)c(Br)s1
49 | 2000 | O=C(NO)[C@H]1Cc2ccccc2CN1S(=O)(=O)c1cc(S(=O)(=O)c2ccccc2)cs1
50 | 100 | O=C(NO)[C@H]1Cc2ccccc2CN1S(=O)(=O)c1ccc(N2CCOCC2)cc1
51 | 3 | COc1ccc(S(=O)(=O)N2Cc3cc(NC(=O)OC(C)(C)C)ccc3C[C@@H]2C(=O)NO)cc1
52 | 4 | COc1ccc(S(=O)(=O)N2Cc3ccccc3C[C@@H]2C(=O)NO)cc1
53 | 2000 | COc1ccc(S(=O)(=O)N2Cc3cc(N)ccc3C[C@@H]2C(=O)C(=O)O)cc1
54 | 3000 | O=C(O)C(=O)C1Cc2ccccc2CN1S(=O)(=O)c1ccc(-c2ccc(Cl)cc2)cc1 (single isomer, unassigned)
